Assay results: US9181232B2, “Difluoro-hexahydro-cyclopentaoxazinyls and difluoro-hexahydro-benzooxazinyls as BACE1 inhibitors” (Hoffmann-La Roche Inc., priority 2012, dated 2015)

Experiments:
[1] = target: T1, P-gp (human MDR1) (Homo sapiens, UniProt P08183); assay: P-gp (P-Glycoprotein) assay, bidirectional transcellular transport in LLC-PK1 and L-MDR1 cells; format: in vitro ADME; conditions: read-out: P-gp human, efflux ratio: substrate category
T1 construct: host or cells: LLC-PK1 (porcine kidney epithelial) transfected with human MDR1 (L-MDR1)
Method: The LLC-PK1 cell line (ATCC #CL-101) is a porcine kidney epithelial cell line. The MDR1 (Human multidrug resistance protein 1) transfected cell lines were obtained from Dr. A. Schinkel, The Netherlands Cancer Institute (Amsterdam, The Netherlands). All cell lines were cultured on permeable inserts (96-insert plates Millipore, 0.11 cm^2 area, pore size 0.4 μm) at 0.73*10^6 cells/ml. Transport measurements were performed at day 4 after seeding. Tightness of the cell monolayer was controlled via the permeability of the extracellular marker lucifer yellow (10 μM).
Bidirectional transcellular transport using LLC-PK1 and L-MDR1 LLC-PK1 cells exogenously expressing the human MDR1)
The experiments were performed on a TECAN automated liquid handling system. […] Concentrations of substrate in both compartments were determined by scintillation counting (digoxin) or by LC-MS/MS. The extracellular marker (lucifer yellow) was quantified using a spectrafluor plus reader at 430/535 nm (Ex/Em). In each experiment 3 different inserts were used for each condition and a mean was calculated. […]
Where Papp, A, C0, and dQ/dt represent the apparent permeability, the filter surface area, the initial concentration, and the amount transported per time period, respectively. Papp values were calculated on the basis of a single time point (2 h).
Transport efflux ratios (ER) were calculated as follows: […]

[2] = in vivo effect; conditions: @ 30 mg/kg p.o.
[3] = target: T2, CYP3A4 (Homo sapiens, UniProt P08684); assay: CYP inhibition assay, human liver microsomes, midazolam; format: in vitro ADME; conditions: read-out: CYP IC50 3A4
T2 construct: 0.2 mg/ml pooled human liver microsomes; from tissue; host or cells: pooled human liver microsomes
Method: (§1) Inhibition of cytochromes P450 (CYPs) 2C9, 2D6 and 3A4 was assessed using human liver microsomes and CYP-selective substrate metabolism reactions. 50 μl incubations were made up containing (finally) 0.2 mg/ml pooled human liver microsomes, 5 μM substrate (diclofenac for CYP2C9 [4′hydroxylase], dextromethorphan for CYP2D6 [O-demethylase] or midazolam for CYP3A4 [1′hydroxylase]), 0.25 μL DMSO containing test inhibitor and NADPH regenerating system. Test inhibitor concentrations of 50, 16.7, 5.6, 1.9, 0.6 and 0.2 μM were assessed in singlicate. Incubations were prewarmed to 37° C. for 10 minutes before initiation by addition of NADPH regenerating system. Incubations were quenched after 5 minutes (20 minutes for dextromethorphan) by addition of 50 μl cold acetonitrile containing 20 ng/ml 4-OH-diclofenac-13C6, 20 ng/mL dextrorphan-D3 and 20 ng/mL 1-OH-midazolam-D4. Quenched incubates were stored at −20° C. for at least 1 hour before centrifugation (20,000×g, 20 minutes). Supernatants were removed and diluted 1:1 with water prior to analysis using a RapidFire sample injector system and API4000 mass spectrometer. Peak areas for substrate, metabolite and stable-labelled metabolite standard were determined using MS/MS. The peak area ratios between the metabolite generated by the enzymatic reaction and the internal standard were used in subsequent calculations. The percentage of (DMSO) control activity was calculated for each incubate and IC50 values estimated by non-linear regression. Sulfaphenazole, quinidine or ketoconazole were tested in each CYP2C9, CYP2D6 or CYP3A4 inhibition experiment, respectively, to ensure assay sensitivity and reproducibility. (Validated assays for human cytochrome P450 activities^11)

[4] = target: T3, CYP2D6 (Homo sapiens, UniProt P10635); assay: CYP inhibition assay, human liver microsomes, dextromethorphan; format: in vitro ADME; conditions: read-out: CYP IC50 2D6
T3 construct: 0.2 mg/ml pooled human liver microsomes; from tissue; host or cells: pooled human liver microsomes
Method: as §1

[5] = target: T4, CYP2C9 (Homo sapiens, UniProt P11712); assay: CYP inhibition assay, human liver microsomes, diclofenac; format: in vitro ADME; conditions: read-out: CYP IC50 2C9
T4 construct: 0.2 mg/ml pooled human liver microsomes; from tissue; host or cells: pooled human liver microsomes
Method: as §1

[6] = Detection of glutathione conjugates; format: in vitro ADME, human; set-up: key: NF = in vitro no significant adduct formation relative to control; conditions: in vitro, relative to control
Text: The assay conditions for the detection of glutathione conjugates follow the procedure described by C. M. Dieckhaus et al.^13

T2 sequence (P08684 whole entry): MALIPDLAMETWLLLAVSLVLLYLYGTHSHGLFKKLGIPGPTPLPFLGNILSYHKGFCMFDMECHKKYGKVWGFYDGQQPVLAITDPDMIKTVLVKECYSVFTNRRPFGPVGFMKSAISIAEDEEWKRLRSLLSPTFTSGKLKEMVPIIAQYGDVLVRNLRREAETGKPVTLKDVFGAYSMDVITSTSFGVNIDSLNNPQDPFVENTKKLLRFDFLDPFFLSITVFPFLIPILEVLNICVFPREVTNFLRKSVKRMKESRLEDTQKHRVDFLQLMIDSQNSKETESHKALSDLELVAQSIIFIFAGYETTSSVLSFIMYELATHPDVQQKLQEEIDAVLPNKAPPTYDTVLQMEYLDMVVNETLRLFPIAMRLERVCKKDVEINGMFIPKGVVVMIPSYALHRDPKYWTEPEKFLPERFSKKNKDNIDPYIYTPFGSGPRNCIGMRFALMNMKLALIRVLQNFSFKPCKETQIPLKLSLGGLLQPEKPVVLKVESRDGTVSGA
T4 sequence (P11712 whole entry): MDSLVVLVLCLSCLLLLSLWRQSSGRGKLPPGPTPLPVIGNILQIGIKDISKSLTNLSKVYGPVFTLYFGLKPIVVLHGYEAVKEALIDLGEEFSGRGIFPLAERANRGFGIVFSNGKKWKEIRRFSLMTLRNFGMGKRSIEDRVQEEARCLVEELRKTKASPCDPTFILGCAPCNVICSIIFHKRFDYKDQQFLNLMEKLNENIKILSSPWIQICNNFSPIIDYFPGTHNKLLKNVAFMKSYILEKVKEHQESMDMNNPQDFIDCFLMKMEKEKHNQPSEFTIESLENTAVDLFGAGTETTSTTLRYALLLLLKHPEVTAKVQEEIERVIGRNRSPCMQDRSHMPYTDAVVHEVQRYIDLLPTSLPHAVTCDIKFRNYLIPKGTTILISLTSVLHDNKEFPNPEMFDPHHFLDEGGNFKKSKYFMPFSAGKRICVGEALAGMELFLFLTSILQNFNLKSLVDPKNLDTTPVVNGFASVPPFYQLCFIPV
T3 sequence (P10635 whole entry): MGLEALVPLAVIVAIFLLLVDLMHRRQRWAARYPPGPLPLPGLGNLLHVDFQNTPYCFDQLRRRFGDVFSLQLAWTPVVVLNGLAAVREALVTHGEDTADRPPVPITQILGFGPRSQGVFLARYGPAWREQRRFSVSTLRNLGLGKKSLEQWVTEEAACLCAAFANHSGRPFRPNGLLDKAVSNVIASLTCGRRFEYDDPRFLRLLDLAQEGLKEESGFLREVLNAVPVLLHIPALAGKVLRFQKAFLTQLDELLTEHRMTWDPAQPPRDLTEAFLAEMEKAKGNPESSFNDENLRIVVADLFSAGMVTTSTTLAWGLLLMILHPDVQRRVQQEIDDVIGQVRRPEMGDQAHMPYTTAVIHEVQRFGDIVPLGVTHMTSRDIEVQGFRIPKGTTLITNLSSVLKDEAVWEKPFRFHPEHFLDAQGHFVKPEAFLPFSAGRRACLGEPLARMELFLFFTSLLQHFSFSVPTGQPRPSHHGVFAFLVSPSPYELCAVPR
T1 sequence (P08183 whole entry): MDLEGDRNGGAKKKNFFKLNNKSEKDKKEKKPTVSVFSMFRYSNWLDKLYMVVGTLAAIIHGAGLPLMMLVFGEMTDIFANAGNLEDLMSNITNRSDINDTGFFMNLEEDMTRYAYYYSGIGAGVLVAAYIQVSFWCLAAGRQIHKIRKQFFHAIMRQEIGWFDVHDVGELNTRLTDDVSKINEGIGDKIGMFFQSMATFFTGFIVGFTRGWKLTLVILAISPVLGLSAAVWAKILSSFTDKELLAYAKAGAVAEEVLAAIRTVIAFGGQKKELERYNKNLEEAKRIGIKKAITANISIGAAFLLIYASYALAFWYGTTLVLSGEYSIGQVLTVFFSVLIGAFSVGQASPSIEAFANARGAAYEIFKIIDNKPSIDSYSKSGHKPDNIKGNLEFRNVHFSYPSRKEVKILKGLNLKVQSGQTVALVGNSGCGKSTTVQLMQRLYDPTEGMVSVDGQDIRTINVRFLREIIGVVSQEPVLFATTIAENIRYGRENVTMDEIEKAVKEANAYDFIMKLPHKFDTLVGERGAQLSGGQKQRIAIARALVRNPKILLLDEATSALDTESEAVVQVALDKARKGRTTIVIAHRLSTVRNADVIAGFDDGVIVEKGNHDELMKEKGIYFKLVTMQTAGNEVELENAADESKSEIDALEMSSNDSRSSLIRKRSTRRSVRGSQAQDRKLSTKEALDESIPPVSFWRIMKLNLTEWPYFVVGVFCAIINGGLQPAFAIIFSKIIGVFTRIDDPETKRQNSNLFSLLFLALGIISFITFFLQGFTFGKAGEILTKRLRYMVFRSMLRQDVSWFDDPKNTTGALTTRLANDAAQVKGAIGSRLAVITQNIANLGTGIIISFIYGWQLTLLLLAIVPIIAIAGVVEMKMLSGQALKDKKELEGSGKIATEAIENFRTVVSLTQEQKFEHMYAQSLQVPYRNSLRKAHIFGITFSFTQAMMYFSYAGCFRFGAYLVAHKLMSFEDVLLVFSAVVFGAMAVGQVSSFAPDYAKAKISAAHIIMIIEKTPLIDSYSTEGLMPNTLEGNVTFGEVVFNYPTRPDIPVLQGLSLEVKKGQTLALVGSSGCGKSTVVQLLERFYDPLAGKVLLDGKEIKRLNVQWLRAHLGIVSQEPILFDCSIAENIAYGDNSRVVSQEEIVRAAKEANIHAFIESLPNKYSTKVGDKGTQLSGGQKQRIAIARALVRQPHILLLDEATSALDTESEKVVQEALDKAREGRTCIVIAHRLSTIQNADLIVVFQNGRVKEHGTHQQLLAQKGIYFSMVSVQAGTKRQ

Structure (SMILES) | efflux ratio at 2 h [1] | in vivo effect (% of control) [2] | IC50 [3] [µM] | IC50 [4] [µM] | IC50 [5] [µM] | GSH human (glutathione adduct formation) [6]
CC#CCOc1cnc(C(=O)Nc2ccc(F)c([C@@]3(C)N=C(N)O[C@@H]4CCC(F)(F)[C@@H]43)c2)cn1 [Example 1, 5-But-2-ynyloxy-pyrazine-2-carboxylic acid [3-((4S,4aR,7aR)-2-amino-5,5-difluoro-4-methyl-4,4a,5,6,7,7a-hexahydro-cyclopenta[e][1,3]oxazin-4-yl)-4-fluoro-phenyl]-amide] | 3 to 10 | A (A = less than 50% of control @ 30 mg/kg p.o.) | > 10 | 1 to 10 | > 10 | 
C[C@]1(c2cc(NC(=O)c3ccc(C#N)cn3)ccc2F)N=C(N)O[C@@H]2CCCC(F)(F)[C@@H]21 [Example 8, 5-Cyano-pyridine-2-carboxylic acid [3-((4S,4aR,8aR)-2-amino-5,5-difluoro-4-methyl-4a,5,6,7,8,8a-hexahydro-4H-benzo[e][1,3]oxazin-4-yl)-4-fluoro-phenyl]-amide] |  | A (A = less than 50% of control @ 30 mg/kg p.o.) | > 10 | > 10 | > 10 | NF
C[C@]1(c2cc(NC(=O)c3ccc(C#N)cn3)ccc2F)N=C(N)O[C@@H]2CCC(F)(F)[C@@H]21 [Example 2, 5-Cyano-pyridine-2-carboxylic acid [3-((4S,4aR,7aR)-2-amino-5,5-difluoro-4-methyl-4,4a,5,6,7,7a-hexahydro-cyclopenta[e][1,3]oxazin-4-yl)-4-fluoro-phenyl]-amide] | 3 to 10 | A (A = less than 50% of control @ 30 mg/kg p.o.) | > 10 | > 10 | > 10 | NF
